From PMC6934184, “Selective DNA-PKcs inhibition extends the therapeutic index of localized radiotherapy and chemotherapy” (The Journal of Clinical Investigation, 2019) come the findings set out here.

The target of this test is T1, MAP4K3 (GLK) (Homo sapiens, UniProt Q8IVH8).
T1 construct: purchased Thermo Fisher Scientific (Life Technologies) SelectScreen
The test can be described thus: SelectScreen LanthaScreen. The test is classed as binding. The following applies: 1 µM. The method in brief:
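NU5455 was profiled across the SelectScreen Broad panel of kinase activity and binding assays. Z'LYTE reactions such as CSF1R ran at apparent Km ATP, while the Adapta CAMK1 assay used ATP listed as 10. Values are given as percent.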
(In general: In TR-FRET formats the signal depends on donor and acceptor labels being close together.)

Each structure is given as a SMILES string.

T1 sequence (Q8IVH8 whole entry): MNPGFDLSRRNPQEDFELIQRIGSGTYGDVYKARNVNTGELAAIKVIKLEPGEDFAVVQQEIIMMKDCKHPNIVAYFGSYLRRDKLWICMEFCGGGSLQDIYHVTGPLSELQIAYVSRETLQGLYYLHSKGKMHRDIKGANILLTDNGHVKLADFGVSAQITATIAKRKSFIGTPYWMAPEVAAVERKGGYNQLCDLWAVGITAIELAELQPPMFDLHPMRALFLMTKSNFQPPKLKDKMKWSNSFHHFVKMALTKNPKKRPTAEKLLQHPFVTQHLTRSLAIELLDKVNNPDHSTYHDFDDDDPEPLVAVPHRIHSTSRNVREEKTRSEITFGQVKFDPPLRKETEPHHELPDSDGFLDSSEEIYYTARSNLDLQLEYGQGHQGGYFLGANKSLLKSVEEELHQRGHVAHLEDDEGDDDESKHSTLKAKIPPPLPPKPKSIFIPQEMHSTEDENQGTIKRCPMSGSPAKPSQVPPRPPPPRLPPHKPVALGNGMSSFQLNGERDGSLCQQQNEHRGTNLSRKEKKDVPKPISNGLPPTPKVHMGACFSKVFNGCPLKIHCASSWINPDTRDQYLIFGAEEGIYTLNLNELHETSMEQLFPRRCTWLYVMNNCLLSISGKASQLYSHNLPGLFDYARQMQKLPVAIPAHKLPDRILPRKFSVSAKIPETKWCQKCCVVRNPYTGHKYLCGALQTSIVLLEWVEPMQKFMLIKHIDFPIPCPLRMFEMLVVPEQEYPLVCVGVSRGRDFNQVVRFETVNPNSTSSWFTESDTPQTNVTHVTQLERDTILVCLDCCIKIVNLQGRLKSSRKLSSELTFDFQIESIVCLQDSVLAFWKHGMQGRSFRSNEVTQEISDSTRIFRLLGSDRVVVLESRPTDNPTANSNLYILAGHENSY

In the case of `CN(C(=O)CN1CCOCC1)c1ccc2sc3c(-c4cccc5c(=O)cc(N6CC7CCC(C6)O7)oc45)cccc3c2c1` [NU5455], the “% displacement” value was -2.1%.
